Source: US20160237059A1, “HETEROCYCLIC SUBSTITUTED TRIFLUOROMETHYL PYRIMIDINONES AND THEIR USE” (BAYER PHARMA AKTIENGESELLSCHAFT, priority 2013, published 2016)

What was measured:
murine CCR2 = target: T1, murine CCR2 (Mus musculus, UniProt P51683); assay: Functional β-arrestin recruiting test with murine MCP-1 (B-2b); assay type: cell-based; settings: U2OS β-arrestin cell line transfected with murine CCR2; agonist murine MCP-1; in some cases means of several determinations
T1 construct: host or cells: U2OS β-arrestin cell line
Protocol: The antagonistic action of test substances on CCR2 was determined in a β-arrestin test. The PathHunter β-arrestin GPCR test system (DiscoveRx Corporation, Ltd.) is a cell-based functional method for detecting binding of β-arrestin to an activated receptor. The molecular basis is a […] complementation measured by the enzymatic conversion of a chemiluminescent substrate. The test cell used was a U2OS β-arrestin cell line transfected with murine CCR2 (93-0543C3, DiscoveRx Corporation, Ltd.).
(§1) The test substances were dissolved in dimethyl sulphoxide (DMSO) at a concentration of 10 mM and serially diluted with DMSO in steps of 1:3.16 for a 10-point dose/activity analysis. According to the desired test concentrations, the substances were pre-diluted in Tyrode with 2 mM CaCl2 and 0.05% BSA.
The cells, cultivated in MEM Eagle (supplemented with 10% FCS, 50 U/ml of penicillin, 50 μg/ml of streptomycin, 250 μg/ml of hygromycin and 500 μg/ml of geniticin), were sown at 2000 cells/25 μl in 384 well, μCLEAR/black cell culture plates from Greiner (#781092) and incubated at 37° C. for 24 h. The sowing medium consisted of Opti-MEM (supplemented with 1% FCS, 50 U/ml of penicillin and 50 μg/ml of streptomycin). The cells were pre-incubated for 10 min with 10 μl of the test substances diluted in buffer, and 10 μl of agonist solution [human MCP-1 (PeproTech, #300-04) in Tyrode with 0.05% BSA) were then added. The human MCP-1 was employed at the concentration which corresponds to the EC50 which had been determined in a preliminary test (usually about 3 nM). After 90 min of incubation at 37° C., the solution was removed, and recruitment of β-arrestin to CCR2 was detected with the aid of the PathHunter detection reagent (93-001, DiscoveRx Corporation, Ltd.) according to the instructions of the manufacturer. Luminescence was measured after an incubation time of 60 min using a proprietary luminescence imaging measuring instrument. The molar concentration of the test substance which caused 50% inhibition of the MCP-1 effect (IC50) was determined using a 4-parameter logistic function (Hill function).
The test was carried out in a manner identical to that described above under B-2a, but using murine MCP-1 (PeproTech, #250-10) as agonist.

human CCR2 = target: T2, human CCR2 (Homo sapiens, UniProt P41597); assay: Functional Ca2+ release test (B-1); assay type: cell-based; settings: Chem-1 cell line transfected with human CCR2; 50% inhibition of the MCP-1 effect, MCP-1 at EC50 (about 5 nM); in some cases means of several determinations
T2 construct: host or cells: Chem-1 cell line
T2 sequence (P41597 1-360 isoform P41597-2): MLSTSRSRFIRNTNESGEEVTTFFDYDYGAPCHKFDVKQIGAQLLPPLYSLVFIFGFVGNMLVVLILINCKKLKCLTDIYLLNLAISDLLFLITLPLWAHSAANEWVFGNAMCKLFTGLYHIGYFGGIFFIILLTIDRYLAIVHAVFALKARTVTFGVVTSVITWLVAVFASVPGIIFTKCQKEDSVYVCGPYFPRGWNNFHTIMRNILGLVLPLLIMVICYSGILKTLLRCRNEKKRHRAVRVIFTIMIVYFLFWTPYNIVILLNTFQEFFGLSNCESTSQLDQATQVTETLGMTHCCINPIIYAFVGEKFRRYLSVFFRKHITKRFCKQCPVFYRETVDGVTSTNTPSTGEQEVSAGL
Protocol: The antagonistic action of test substances on CCR2 was determined in a functional Ca^2+ release test. Binding of CCL2/MCP-1 to CCR2 leads to a change in the conformation of the receptor resulting in Gi/Gq protein activation and intracellular signal cascade. This involves, inter alia, an intracellular Ca^2+ release. The test cell used was a Chem-1 cell line transfected with human CCR2 (ChemiSCREEN™ CCR2B Calcium-Optimized FLIPR Cell Line, Merck Millipore).
as §1
The cells, cultivated in DMEM high glucose [supplemented with 10% FCS, 1 mM pyruvate, 15 mM HEPES, 500 μg/ml geniticin and non-essential amino acids (NEAA)], were sown at 5000 cells/25 μl in 384 well, μCLEAR/black cell culture plates from Greiner (#781092) and incubated at 37° C. for 24 h. The sowing medium consisted of DMEM high glucose [supplemented with 5% FCS, 1 mM pyruvate, 15 mM HEPES, 50 U/ml penicillin, 50 μg/ml streptomycin and non-essential amino acids (NEAA)]. The medium was then removed and the cells were charged for 60 min at 37° C. with Fluo-4 dye [25 μl Tyrode with 3 μM Fluo-4 AM (1 mM DMSO stock solution), 0.4 mg/ml Brilliant Black, 2.5 mM probenicid, 0.03% Pluronic F-127]. The cells were pre-incubated for 10 min with 10 μl of the test substances diluted in buffer, and 20 μl of agonist solution (MCP-1 in Tyrode with 0.05% BSA) were then added. MCP-1 was employed at the concentration which corresponds to the EC50 which had been determined in a preliminary test (usually about 5 nM). Ca^2+ release was monitored over a period of 120 s in 1 s increments in a proprietary fluorescence imaging reader. The molar concentration of the test substance which caused 50% inhibition of the MCP-1 effect (IC50) was determined using a 4-parameter logistic function (Hill function).

T1 sequence (P51683 whole entry): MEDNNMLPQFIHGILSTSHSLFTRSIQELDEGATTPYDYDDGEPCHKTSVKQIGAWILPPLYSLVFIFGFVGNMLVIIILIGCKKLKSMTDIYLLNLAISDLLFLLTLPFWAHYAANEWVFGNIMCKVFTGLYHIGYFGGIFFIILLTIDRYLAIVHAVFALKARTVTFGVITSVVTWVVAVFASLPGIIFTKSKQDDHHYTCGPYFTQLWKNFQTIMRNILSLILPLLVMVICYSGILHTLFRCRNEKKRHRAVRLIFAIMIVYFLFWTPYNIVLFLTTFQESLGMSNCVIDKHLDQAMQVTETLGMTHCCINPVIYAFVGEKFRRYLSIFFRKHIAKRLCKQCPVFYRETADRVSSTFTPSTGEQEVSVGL

SMILES	IC50 (murine CCR2) [nM]	IC50 (human CCR2) [nM]
CC(C)Oc1ccnc(-c2nc(C(F)(F)F)c(Oc3ccc(Cl)c(C(F)(F)F)c3)c(=O)[nH]2)c1 [Example 150, 5-[4-chloro-3-(trifluoromethyl)phenoxy]-2-(4-isopropoxypyridin-2-yl)-6-(trifluoromethyl)pyrimidin-4(3H)-one]	1340	23
CC(C)(C)Oc1cccc(-c2nc(C(F)(F)F)c(Oc3ccc(Cl)c(C(F)(F)F)c3)c(=O)[nH]2)n1 [Example 151, 2-(6-tert-butoxypyridin-2-yl)-5-[4-chloro-3-(trifluoromethyl)phenoxy]-6-(trifluoromethyl)pyrimidin-4(3H)-one]	3680	96
COc1ccnc(-c2nc(C(F)(F)F)c(Oc3ccc(Cl)c(C(F)(F)F)c3)c(=O)[nH]2)c1 [Example 152, 5-[4-chloro-3-(trifluoromethyl)phenoxy]-2-(4-methoxypyridin-2-yl)-6-(trifluoromethyl)pyrimidin-4(3H)-one]	838	8.2
Nc1ccc(-c2nc(C(F)(F)F)c(Oc3ccc(Cl)c(C(F)(F)F)c3)c(=O)[nH]2)nn1 [Example 153, 2-(6-aminopyridazin-3-yl)-5-[4-chloro-3-(trifluoromethyl)phenoxy]-6-(trifluoromethyl)pyrimidin-4(3H)-one]	87	0.7
Nc1ncc(-c2nc(C(F)(F)F)c(Oc3ccc(Cl)c(Cl)c3)c(=O)[nH]2)cn1 [Example 154, 2′-amino-5-(3,4-dichlorophenoxy)-6-(trifluoromethyl)-2,5′-bipyrimidin-4(3H)-one]	1930	37
Nc1ncc(-c2nc(C(F)(F)F)c(Oc3ccc(Cl)c(C(F)(F)F)c3)c(=O)[nH]2)cn1 [Example 155, 2′-amino-5-[4-chloro-3-(trifluoromethyl)phenoxy]-6-(trifluoromethyl)-2,5′-bipyrimidin-4(3H)-one]	1080	23
COc1cc(OC)nc(-c2nc(C(F)(F)F)c(Oc3ccc(Cl)c(Cl)c3)c(=O)[nH]2)n1 [Example 156, 5-(3,4-dichlorophenoxy)-4′,6′-dimethoxy-6-(trifluoromethyl)-2,2′-bipyrimidin-4(3H)-one]	244	0.7
Cc1ccc(-c2nc(C(F)(F)F)c(Oc3ccc(Cl)c(Cl)c3)c(=O)[nH]2)nc1C [Example 157, 5-(3,4-dichlorophenoxy)-2-(5,6-dimethylpyridin-2-yl)-6-(trifluoromethyl)pyrimidin-4(3H)-one]	1510	14
Cc1ccc(-c2nc(C(F)(F)F)c(Oc3ccc(Cl)c(C(F)(F)F)c3)c(=O)[nH]2)nc1C [Example 158, 5-[4-chloro-3-(trifluoromethyl)phenoxy]-2-(5,6-dimethylpyridin-2-yl)-6-(trifluoromethyl)pyrimidin-4(3H)-one]	983	8.7
CC(C)(C)Oc1ccnc(-c2nc(C(F)(F)F)c(Oc3ccc(Cl)c(Cl)c3)c(=O)[nH]2)c1 [Example 159, 2-(4-tert-butoxypyridin-2-yl)-5-(3,4-dichlorophenoxy)-6-(trifluoromethyl)pyrimidin-4(3H)-one]	2470	62
CC(C)(C)Oc1ccnc(-c2nc(C(F)(F)F)c(Oc3ccc(Cl)c(C(F)(F)F)c3)c(=O)[nH]2)c1 [Example 160, 2-(4-tert-butoxypyridin-2-yl)-5-[4-chloro-3-(trifluoromethyl)phenoxy]-6-(trifluoromethyl)pyrimidin-4(3H)-one]	1960	62
O=c1[nH]c(-c2cccc[n+]2[O-])nc(C(F)(F)F)c1Oc1ccc(Cl)c(Cl)c1 [Example 161, 5-(3,4-dichlorophenoxy)-2-(1-oxidopyridin-2-yl)-6-(trifluoromethyl)pyrimidin-4(3H)-one]	432	2.3
CCc1cccc(-c2nc(C(F)(F)F)c(Oc3ccc(Cl)c(Cl)c3)c(=O)[nH]2)n1 [Example 162, 2-(6-ethylpyridin-2-yl)-5-(3,4-dichlorophenoxy)-6-(trifluoromethyl)pyrimidin-4(3H)-one]	1070	1.9
CC(C)Oc1ccc(-c2nc(C(F)(F)F)c(Oc3ccc(Cl)c(Cl)c3)c(=O)[nH]2)cn1 [Example 163, 5-(3,4-dichlorophenoxy)-2-(6-isopropoxypyridin-3-yl)-6-(trifluoromethyl)pyrimidin-4(3H)-one]	7680	129
O=c1[nH]c(-c2cccnc2)nc(C(F)(F)F)c1Oc1ccc(Cl)c(C(F)(F)F)c1 [Example 164, 5-[4-chloro-3-(trifluoromethyl)phenoxy]-2-(pyridin-3-yl)-6-(trifluoromethyl)pyrimidin-4(3H)-one]	798	16
O=c1[nH]c(-c2cccnc2)nc(C(F)(F)F)c1Cc1ccc(Cl)c(C(F)(F)F)c1 [Example 165, 5-[4-chloro-3-(trifluoromethyl)benzyl]-2-(pyridin-3-yl)-6-(trifluoromethyl)pyrimidin-4(3H)-one]	3370	14
CNc1cccc(-c2nc(C(F)(F)F)c(Oc3ccc(Cl)c(Cl)c3)c(=O)[nH]2)n1 [Example 166, 5-(3,4-dichlorophenoxy)-2-[6-(methylamino)pyridin-2-yl]-6-(trifluoromethyl)pyrimidin-4(3H)-one]	277	8.8
CNc1cccc(-c2nc(C(F)(F)F)c(Oc3ccc(Cl)c(C(F)(F)F)c3)c(=O)[nH]2)n1 [Example 167, 5-[4-chloro-3-(trifluoromethyl)phenoxy]-2-[6-(methylamino)pyridin-2-yl]-6-(trifluoromethyl)pyrimidin-4(3H)-one]	153	2.7
CNc1ccnc(-c2nc(C(F)(F)F)c(Oc3ccc(Cl)c(Cl)c3)c(=O)[nH]2)c1 [Example 168, 5-(3,4-dichlorophenoxy)-2-[4-(methylamino)pyridin-2-yl]-6-(trifluoromethyl)pyrimidin-4(3H)-one]	1210	25
CNc1ccnc(-c2nc(C(F)(F)F)c(Oc3ccc(Cl)c(C(F)(F)F)c3)c(=O)[nH]2)c1 [Example 169, 5-[4-chloro-3-(trifluoromethyl)phenoxy]-2-[4-(methylamino)pyridin-2-yl]-6-(trifluoromethyl)pyrimidin-4(3H)-one]	624	36
Cc1cc(-c2nc(C(F)(F)F)c(Oc3ccc(Cl)c(C(F)(F)F)c3)c(=O)[nH]2)nn1C [Example 170, 5-[4-chloro-3-(trifluoromethyl)phenoxy]-2-(1,5-dimethyl-1H-pyrazol-3-yl)-6-(trifluoromethyl)pyrimidin-4(3H)-one]	84	0.7
